Data on one molecule can be found in US9150530B2, “Esters of 4, 9-dihydroxy-naphtho [2, 3-b] furans for disease therapies” (Zhoushan Haizhongzhou Xinsheng Pharmaceuticals Co., Ltd., priority 2011, dated 2015).

One data set deals with A549. The data set is described as follows: Cell viability determination (MTT), A549. The format is cell-based. The following applies: Homo sapiens, A549, lung cancer, 48 hour incubation, read-out: Drug concentrations for 50% cell viability (IC50). From the text: (§1) Cell Culture: A549, DLD1, SW480, LOVO, HT-29, Hela, U-20S, MES-SA, SK-MEL-28, Panc-1, DU-145, CNE, U251, Eca-109, MGC80-3, QGY-7701, BEL-7404, PLC/PRF/5, Huh-7, and SGC-7901 cells were maintained in Dulbecco's Modified Eagle Medium (DMEM) (imported from Invitrogen, Carlsbad, Calif., USA) supplemented with 10% fetal bovine serum (FBS) (Si Ji Qing, Hangzhou, China) and 1% penicillin/streptomycin/amphotericin B (imported from Invitrogen, Carlsbad, Calif., USA).
(§2) Cell Viability Determination: Popular MTT method (Archives of Biochemistry and Biophysics, 1993, 303: 474-482) was used to screen the in vitro effects of the invented drugs. Briefly, 5000 to 10000 cells were inoculated per well in a 96-well plate. After overnight incubation, drug was added to the wells at final concentration of 10 μM, […], 2.5 μM, 1.25 μM, or 1 μM, 0.75 μM, 0.5 μM and 0.25 μM in complete culture medium. Each dose level covered 4 equivalent wells. After 48 hour incubation, one tenth volume of 5 mg/mL MTT (thiazolyl blue tetrazolium bromide, Sigma-Aldrich) stock solution was added, and incubation was continued for 2 hours. Then medium was removed and 100 μL of isopropanol solution comprising 86% isopropanol, 4% aqueous 1 N HCl and 10% aqueous SDS solution (10% in concentration) was added. The absorbance of each well at 570 nm wavelength was measured by a micro-plate reader after gentle shaking for 20 minutes. Drug concentrations of 50% cell viability (IC50) were calculated by LOGIT method.

In another data set the test system is DLD1. Description: Cell viability determination (MTT), DLD1. The data set is classed as cell-based. The following applies: Homo sapiens, DLD-1, DLD1, colorectal cancer, 48 hour incubation, read-out: Drug concentrations for 50% cell viability (IC50).
Text: as §1, §2

In a further data set the test system is SW480. The data set is described as follows: Cell viability determination (MTT), SW480. The data set is classed as cell-based. Particulars: Homo sapiens, SW480, colorectal cancer, 48 hour incubation, read-out: Drug concentrations for 50% cell viability (IC50).
Text: as §1, §2

The subject of the next data set is LOVO. The data set is described as follows: Cell viability determination (MTT), LOVO. Particulars: Homo sapiens, colorectal cancer, 48 hour incubation, read-out: Drug concentrations for 50% cell viability (IC50). The data set is classed as cell-based.
Text: as §1, §2

In the next data set the test system is U-20S. Description: Cell viability determination (MTT), U-20S. The format is cell-based. Particulars: osteosarcoma, 48 hour incubation, read-out: Drug concentrations for 50% cell viability (IC50).
Text: as §1, §2

Another data set deals with MES-SA. The data set is described as follows: Cell viability determination (MTT), MES-SA. The format is cell-based. The following applies: Homo sapiens, leiomyosarcoma, 48 hour incubation, read-out: Drug concentrations for 50% cell viability (IC50).
Text: as §1, §2

In the next data set the test system is U251. The data set is described as follows: Cell viability determination (MTT), U251. The following applies: Homo sapiens, U-251, U251, glioma, 48 hour incubation, read-out: Drug concentrations for 50% cell viability (IC50). The format is cell-based.
Text: as §1, §2

The test system of a further data set is QGY-7701. Description: Cell viability determination (MTT), QGY-7701. The format is cell-based. The following applies: QGY7701, QGY-7701, liver cancer, 48 hour incubation, read-out: Drug concentrations for 50% cell viability (IC50).
Text: as §1, §2

Data set [1] is described as follows: Human plasma incubation, HPLC analysis of degradation products. Particulars: 20 μM in human plasma, 37° C., 2 hours. The format is in vitro ADME. Here is the method: The compounds of formula I were incubated in human plasma at 37° C. for 2 hours, and then the mixtures were treated with acetonitrile to remove protein and the resulting supernatants were analyzed by HPLC (FIG. 2). […] Without wishing to be bound by a particular theory, it is believed that, although not detected due to instability in a protein-free environment, the direct hydrolysis product of a compound of formula I, 4,9-dihydroxy-naphtho[2,3-b]furan, and its partially oxidized product semihydroquinone (shown in scheme 6) co-exist in vivo and play important biological roles.
HPLC column: Waters Sunfire C18, 250×4.60 mm 5 micron; Mobile phase: buffer A, 90% 5 mM potassium phosphate buffer, pH 6.8, 10% acetonitrile; buffer B, 15% 5 mM potassium phosphate buffer, pH 6.8, 85% acetonitrile; Detector: Waters 2998 Photodiode Array Detector.
Gradient B: 0-3 min, 50% buffer B, 3-5 min, 50%-100% buffer B, 5-18 min, 100% buffer B, 18-22 min, 100%-50% buffer B, 22-25 min, […]; flow rate, 1 ml/min. Analysis of the 4,9-dihydroxy-naphtho[2,3-b]furan compounds (FIG. 1)
10 mM of a compound of formula I or its analog in DMSO (however, compound VI was in DMF) was diluted with human plasma to 20 μM, and the resulting mixtures were incubated at 37° C. for 2 hours. To plasma sample, 9 times volume of acetonitrile was added. The resulting mixtures were vortexed and incubated in dry ice for 30 minutes or in −20° C. freezer for 3 hours, then centrifuged, and supernatant was used for HPLC analysis using gradient B.

The structures appear in SMILES notation. pIC50: −log10 of the molar value.

With `CC(=O)Oc1c2ccccc2c(OC(=O)CNC(=O)OC(C)(C)C)c2oc(C(C)=O)cc12` [compound IV, 2-acetyl-4-acetoxy-9-[(tert-butoxycarbonyl)amino]acetoxy-naphtho[2,3-b]furan], the pIC50 was 6.22 in the data set with A549; 6.52 in the data set on DLD1; 6.04 in the data set on SW480; 5.71 in the data set with LOVO; 6.00 to 6.12 with U-20S; 6.38 in the data set on MES-SA. For the same molecule, the pIC50 in the data set on U251 is 5.94; with QGY-7701, 5.49. Further, in [1], the “Degradation / detectable products after incubation in human plasma” value is “the detectable products were compound XIII and partially degraded products”.
